Assay results as given in patent publication US20040009485A1, “Cellular arrays for the identification of altered gene expression” (priority 2002, published 2004).

How the values were obtained:
Assay type in all cases: cell-based, E. coli
[1] = test system: heat shock regulon gene fusions; assay: Stress response of heat shock regulon luxCDABE gene fusions (ethanol); settings: clpB-luxCDABE fusion (heat shock regulon), DPD2243; 5 μg/ml nalidixic acid, 110 minutes
Method: To test the stress responses, one or two single colonies of each selected strain were used to inoculate 5.0 ml of LB medium containing 150 μg/ml of ampicillin. These cultures were grown overnight at 37° C. then diluted by adding 50 μl or 100 μl of the overnight culture into 10.0 ml of fresh LB medium (without ampicillin) and grown with agitation at 37° C. until the culture was in exponential phase with readings on a Klett-Summerson colorimeter containing the red filter of between 10 and 40. These actively growing cultures were immediately used to initiate a stress response experiment by adding 50 μl of cultures to 50 μl of LB medium containing various concentrations of chemical in the wells a 96 well luminometer plate. This division of the actively growing culture at the time of chemical addition ensured identical populations were present when the stress was imposed. Light production was measured in a Dynex ML3000 luminometer at 37° C. The dimensionless units of light production, relative light units (RLU), are obtained by comparison with the light reading from an internal light-emitting diode. The cycle mode of the ML3000 luminometer, similar to previous descriptions (Van Dyk et al., Appl. Environ. Microbiol. 60:1414-120) was used. […]

[2] = test system: luxCDABE gene fusions of the Lux-A Collection; assay: Induction of Lux-A Collection gene fusions by MMC (and yebF fusion by nalidixic acid); settings: light-producing transformants with inverted insert (20% of them)
Method: The Lux-A Collection of reporter gene fusions was examined for presence of fusions to the genes in Table 11. […] Each of these was tested for induction by MMC at several doses over a time course of 100 minutes.
As expected, the expression of the known SOS genes was elevated; however the expression of several was elevated less than 2-fold (Table 12) and as such were within a large group of 792 genes the expression of which was elevated by 20% or more. Most of these are likely due to artifacts in the array data rather than to actual biologically relevant responses. To test if strains carrying luxCDABE gene fusions would yield the expected positive result, the three gene fusions that were available in the Lux-A Collection of reporter gene fusions were tested for mitomycin C responses.
In this case, a divergent promoter to the purT gene was present in the chromosomal fragment and strains containing the backward yebF fusion produced light. […] […] The orientation of the inserted segment to yield a fusion of yebF to the luxCDABE operon was confirmed by DNA sequence analysis.

[3] = test system: Luxarray 0.5 reporter clones; assay: Luxarray 0.5 solid phase perturbation with nalidixic acid (luminometer); settings: 1 and 5 μg/ml plates, 2 hrs
Method: A solid phase assay system consisting of reporter clones growing in the presence or absence of a perturbation, biological, environmental was developed. This was accomplished by growing the reporters on a porous membrane (Biodyne B, Nunc) seated on top of solid growth media in a culture dish (OmniTray, Nunc). Luminescence was measured either by a luminometer or by creating an image of the entire culture and quantitating the pixel density. Effects of perturbants can be determined by comparison of luminescence generated by treated and control cultures. Growth on the surface of the membrane allows the reporter assay to be moved between conditions as required. […]
Membranes were sterilized with UV illumination for 10 min then placed in contact with prewarmed media in a culture dish. […] Luminescence data was collected for each spot for 40 cycles of 20 min duration (overnight). […] Without exception, the signal strength measured corroborated the data obtained in liquid culture. […]
Next the system was evaluated for its ability to determine responses to perturbation, in this case, DNA damage caused by nalidixic acid Parental clone and two nonresponding reporters, osmY, and lacZYA, and three DNA damage responsive reporters, uvrA, recA, dinG, were chosen. […] The membranes were moved to new, pre-warmed plates containing varying amounts of nalidixic acid and light readings collected with an ML3000 luminometer. […]

[4] = test system: luxCDABE gene fusions in lexA+ host; assay: Mitomycin C and nalidixic acid responses in lexA+ host; settings: for NA Ratio, 2 hr 10 ug/ml: lexA+ host
Method: In addition, the effect of a lexAind mutation was tested to determine if any of these were part of the SOS regulon. The expectation is that SOS regulon member will be induced by both nalidixic acid and mitomycin C in a manner that is dependent on lexA function (Walker, G. C., (1996) Escherichia coli and Salmonella: Cellular and Molecular Biology ASM Press). […] This is consistent with the observation of upregulation of the b1728 mRNA transcript upon mitomycin C treatment in a LexA dependent fashion (Fernández de Henestrosa et al. (2000). Mol. Microbiol. 35:1560-1572). Likewise, two Gene fusions, those to oraA and yigN were identified is new members of the SOS regulon (Table 16). […] Negative, non-DNA damage responsive gene fusions were also included (Table 16).

SMILES: CCn1cc(C(=O)O)c(=O)c2ccc(C)nc21 [Nalidixic acid, nalidixic acid]
- Response Ratio [1]: 0.40
- induction of bioluminescence of inverted yebF-luxCDABE fusion [2]: highly induced
- bioluminescence on solid medium ([3]; SOS regulon reporters uvrA, recA, dinG): increased bioluminescence
- bioluminescence on solid medium ([3]; non-DNA damage responsive fusions osmY and lacZYA): unaffected
- NA Ratio, 2 hr 10 ug/ml ([4]; 1pxA 1pxB rnhB dnaE fusion (lux-a.pk061.c3)): 2.87
- NA Ratio, 2 hr 10 ug/ml ([4]; b1728 fusion (lux-a.pk033.c5)): 5.17
- NA Ratio, 2 hr 10 ug/ml ([4]; b1936 fusion (lux-a.pk0019.g1)): 3.25
- NA Ratio, 2 hr 10 ug/ml ([4]; dinG ybiB fusion (lux-a.pk0024.f5)): 4.03
- NA Ratio, 2 hr 10 ug/ml ([4]; fusion (lux-a.pk0015.d6)): 3.22
- NA Ratio, 2 hr 10 ug/ml ([4]; lacZ fusion (65.d4), negative control): 0.81
- induction of b1728 promoter-luxCDABE fusion ([4]; lexA+ host (FIG. 9)): clearly induced
- NA Ratio, 2 hr 10 ug/ml ([4]; oraA fusion (lux-a.pk058.f5)): 11.06
- NA Ratio, 2 hr 10 ug/ml ([4]; yaaF fusion (lux-a.pk031.e7)): 1.53
- NA Ratio, 2 hr 10 ug/ml ([4]; yciG fusion (lux-a.pk006.b4), negative control): 0.32
- NA Ratio, 2 hr 10 ug/ml ([4]; yigN fusion (lux-a.pk046.f11)): 5.74
